The numbers were not newly measured in article PMC8513935, which cites them from elsewhere.

The nature of series [1]: log P octanol/water from commercial databases, averaged (the ESI). As to conditions: Octanol (wet), 25 C.
Series [2] can be described thus: experimental, compiled by the authors from the literature (the ESI cites the sources).
Series [3] can be described thus: derived by the authors as gas->solvent minus gas->water (a hypothetical dry solvent; the ESI), not a two-phase measurement.

Turning to `c1ccc2c(c1)Cc1ccccc1-2`, the log K of transfer, water to solvent in series [1] was 4.18 log10 K; in series [3] (2-Methylpropan-1-ol, 25 C), 4.3 log10 K; in series [3] (2-Methylpropan-2-ol, 25 C) it was 4.03 log10 K; in series [3] (3-Methylbutan-1-ol, 25 C), 4.11 log10 K; in series [3] (Acetonitrile, 25 C) it was 4.67 log10 K; in series [3] (Butan-1-ol, 25 C), 4.26 log10 K. Moreover, the log K of transfer, water to solvent in series [3] (Butan-2-ol, 25 C) was 4.11 log10 K; in series [3] (Decan-1-ol, 25 C), 4.39 log10 K; in series [3] (Ethanol, 25 C), 4.09 log10 K; in series [3] (Heptan-1-ol, 25 C) it was 4.39 log10 K; in series [3] (Hexadecane, 25 C), 4.47 log10 K; in series [3] (Hexan-1-ol, 25 C), 4.34 log10 K. Further, the log K of transfer, water to solvent in series [3] (Hexane, 25 C) is 4.36 log10 K; in series [3] (Methanol, 25 C) it was 4.03 log10 K; in series [3] (Octan-1-ol(dry), 25 C), 4.38 log10 K; in series [3] (Pentan-1-ol, 25 C), 4.32 log10 K; in series [3] (Propan-1-ol, 25 C), 4.21 log10 K; in series [3] (Propan-2-ol, 25 C), 4.09 log10 K. In addition, the log K of transfer, gas to solvent in series [2] (2-Methylpropan-1-ol, 25 C) was 6.75 log10 K; in series [2] (2-Methylpropan-2-ol, 25 C), 6.48 log10 K; in series [2] (3-Methylbutan-1-ol, 25 C), 6.56 log10 K; in series [2] (Acetonitrile, 25 C), 7.12 log10 K; in series [2] (Butan-1-ol, 25 C), 6.71 log10 K; in series [2] (Butan-2-ol, 25 C) it was 6.56 log10 K. Also, the log K of transfer, gas to solvent in series [2] (Decan-1-ol, 25 C) was 6.84 log10 K; in series [2] (Ethanol, 25 C) it was 6.54 log10 K; in series [2] (Heptan-1-ol, 25 C) it was 6.84 log10 K; in series [2] (Hexadecane, 25 C), 6.92 log10 K; in series [2] (Hexan-1-ol, 25 C), 6.79 log10 K; in series [2] (Hexane, 25 C) it was 6.81 log10 K. Moreover, the log K of transfer, gas to solvent in series [2] (Methanol, 25 C) was 6.48 log10 K; in series [2] (Octan-1-ol, 25 C) it was 6.83 log10 K; in series [2] (Pentan-1-ol, 25 C), 6.77 log10 K; in series [2] (Propan-1-ol, 25 C), 6.66 log10 K; in series [2] (Propan-2-ol, 25 C) it was 6.54 log10 K; in series [2] (Water, 25 C), 2.45 log10 K.

For `CN1CCCCC1`, the log K of transfer, water to solvent is 1.29 log10 K in series [1]; 1.36 log10 K in series [3] (Chloroform, 25 C); 0.48 log10 K in series [3] (Hexadecane, 25 C). Besides, the log K of transfer, gas to solvent in series [2] (Chloroform, 25 C) is 4.21 log10 K; in series [2] (Hexadecane, 25 C), 3.33 log10 K; in series [2] (Water, 25 C), 2.85 log10 K.

As for `CC(C)CCC(C)C`, the log K of transfer, water to solvent in series [1] was 4.8 log10 K; in series [3] (1,2-Dichloroethane, 25 C), 5.12 log10 K; in series [3] (Acetone, 25 C), 4.97 log10 K; in series [3] (Acetonitrile, 25 C) it was 4.41 log10 K; in series [3] (Butanone, 25 C), 5.16 log10 K; in series [3] (Butyronitrile, 25 C), 4.94 log10 K. For the same compound, the log K of transfer, water to solvent in series [3] (CCl4, 25 C) was 5.68 log10 K; in series [3] (Chlorobenzene, 25 C) it was 5.66 log10 K; in series [3] (Chloroform, 25 C) it was 5.58 log10 K; in series [3] (Cyclohexanone, 25 C), 5.08 log10 K; in series [3] (Dichloromethane, 25 C), 5.42 log10 K; in series [3] (Hexadecane, 25 C) it was 5.33 log10 K. Also, the log K of transfer, water to solvent in series [3] (Hexane, 25 C) is 5.66 log10 K; in series [3] (Perfluoroalkane, 25 C), 4.39 log10 K; in series [3] (Propan-2-ol, 25 C), 4.89 log10 K; in series [3] (Propionitrile, 25 C), 4.78 log10 K; in series [3] (Tetrahydrofuran, 25 C) it was 5.55 log10 K; in series [3] (Toluene, 25 C), 5.49 log10 K. In addition, the log K of transfer, gas to solvent in series [2] (1,2-Dichloroethane, 25 C) is 3.1 log10 K; in series [2] (Acetonitrile, 25 C), 2.39 log10 K; in series [2] (Butanone, 25 C) it was 3.14 log10 K; in series [2] (Butyronitrile, 25 C), 2.92 log10 K; in series [2] (CCl4, 25 C), 3.66 log10 K; in series [2] (Chlorobenzene, 25 C) it was 3.64 log10 K. Also, the log K of transfer, gas to solvent in series [2] (Chloroform, 25 C) was 3.56 log10 K; in series [2] (Cyclohexanone, 25 C), 3.06 log10 K; in series [2] (Dichloromethane, 25 C), 3.4 log10 K; in series [2] (Hexadecane, 25 C), 3.31 log10 K; in series [2] (Hexane, 25 C) it was 3.64 log10 K; in series [2] (Perfluoroalkane, 25 C), 2.37 log10 K. The log K of transfer, gas to solvent is 2.87 log10 K in series [2] (Propan-2-ol, 25 C); 2.95 log10 K in series [2] (Propanone, 25 C); 2.76 log10 K in series [2] (Propionitrile, 25 C); 3.53 log10 K in series [2] (Tetrahydrofuran, 25 C); 3.47 log10 K in series [2] (Toluene, 25 C); -2.02 log10 K in series [2] (Water, 25 C).

On to `OC1CCCCC1`, for which the log K of transfer, water to solvent was 1.23 log10 K in series [1]; 1.08 log10 K in series [3] (Acetone, 25 C); 1.12 log10 K in series [3] (Chloroform, 25 C); 1.48 log10 K in series [3] (Decan-1-ol, 25 C); -0.252 log10 K in series [3] (Hexadecane, 25 C); 1.17 log10 K in series [3] (Octan-1-ol(dry), 25 C). In addition, the log K of transfer, gas to solvent in series [2] (Chloroform, 25 C) is 5.13 log10 K; in series [2] (Decan-1-ol, 25 C) it was 5.48 log10 K; in series [2] (Hexadecane, 25 C), 3.76 log10 K; in series [2] (Octan-1-ol, 25 C) it was 5.18 log10 K; in series [2] (Propanone, 25 C) it was 5.09 log10 K; in series [2] (Water, 25 C) it was 4.01 log10 K.

Consider `Cc1cc(C)cc(O)c1`, for which the log K of transfer, water to solvent in series [1] is 2.35 log10 K; in series [3] (CCl4, 25 C), 0.82 log10 K; in series [3] (Chlorobenzene, 25 C), 1.26 log10 K; in series [3] (Hexadecane, 25 C), 0.256 log10 K; in series [3] (Hexane, 25 C), 0.362 log10 K. For the same compound, the log K of transfer, gas to solvent in series [2] (CCl4, 25 C) was 5.42 log10 K; in series [2] (Chlorobenzene, 25 C), 5.86 log10 K; in series [2] (Hexadecane, 25 C) it was 4.85 log10 K; in series [2] (Hexane, 25 C), 4.96 log10 K; in series [2] (Water, 25 C) it was 4.6 log10 K.
